Measurements reported in patent US10392338B2, “Spirofuranone compounds, derivatives thereof and processes for their preparation” (Yissum Research Development Company of The Hebrew …, priority 2015, dated 2019).
Entries after “also recorded” stand apart in the source; their conditions may differ.

How the values were obtained:
[1] = test system: small-diameter (C-fiber) rat TG neurons; assay: Current-clamp whole-cell recording of membrane potential in dissociated TG sensory neurons; type: cell-based; conditions: capsaicin 0.2 μM; current clamp I=0; P2 rat TG neurons
Description: In dissociated sensory neurons from the trigeminal ganglion (TG) of P2 rat, the inventors have recorded the membrane potential following the application of the different molecules, using current-clamp mode in the whole-cell configuration. […] In contrast, the compound of the invention have evoked slow (in comparison to capsaicin), ˜20 mV depolarization, with no action potential firing (FIG. 16E, upper trace).

rTRPV1(Y511G) = rTRPV1(Y511G) (Rattus norvegicus, UniProt O35433, Y511G); conditions: 300 μM; VBS domain mutated
Chain of rTRPV1(Y511G) (O35433 whole entry Y511G, the tested form may be a part): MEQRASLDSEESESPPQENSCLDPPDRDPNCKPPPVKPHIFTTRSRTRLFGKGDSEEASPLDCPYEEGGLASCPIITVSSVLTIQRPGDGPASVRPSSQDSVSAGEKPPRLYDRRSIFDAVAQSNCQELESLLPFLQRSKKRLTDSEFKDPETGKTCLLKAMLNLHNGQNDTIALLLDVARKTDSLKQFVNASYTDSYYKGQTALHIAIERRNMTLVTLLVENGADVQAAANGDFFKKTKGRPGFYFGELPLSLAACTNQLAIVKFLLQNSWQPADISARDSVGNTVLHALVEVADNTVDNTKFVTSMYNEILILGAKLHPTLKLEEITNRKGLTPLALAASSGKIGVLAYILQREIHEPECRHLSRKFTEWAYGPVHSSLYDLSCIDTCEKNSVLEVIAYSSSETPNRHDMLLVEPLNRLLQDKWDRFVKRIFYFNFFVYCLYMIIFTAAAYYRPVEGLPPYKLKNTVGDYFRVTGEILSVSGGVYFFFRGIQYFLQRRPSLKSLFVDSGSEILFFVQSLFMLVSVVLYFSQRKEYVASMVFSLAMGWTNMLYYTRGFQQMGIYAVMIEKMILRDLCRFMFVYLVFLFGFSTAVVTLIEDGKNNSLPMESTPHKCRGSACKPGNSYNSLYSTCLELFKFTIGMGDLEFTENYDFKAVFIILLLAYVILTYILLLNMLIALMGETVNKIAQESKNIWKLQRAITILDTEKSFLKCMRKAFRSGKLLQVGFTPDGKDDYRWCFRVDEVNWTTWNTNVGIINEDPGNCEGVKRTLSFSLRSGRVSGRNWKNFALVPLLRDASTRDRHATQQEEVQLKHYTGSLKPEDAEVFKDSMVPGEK
Description: Averaged (n=30 cells) ratiometric calcium responses of HEK293T cells expressing rat TRPV1 (rTRPV1), as a function of time. Application of different SAVA (as indicated; 300 μM; yellow bar) was followed by capsaicin (CAP; 5 μM; red bar). […] Same as B, but recorded from HEK293T cells expressing rTRPV1(Y511G) in which VBS domain is mutated. […] D. Superimposed capsaicin-(1 μM; grey line) and SAVA-(compound 6 in B; 300 μM; black line)-induced currents (Vholding=−40 mV) recorded in whole cell configuration from HEK293T cells expressing the rTRPV1. Recording were done on cells with similar TRPV1 expressing levels (determined by the initial response to pH 5.5). […] E. Current-clamp recording (I=0) in the whole cell configuration from small-diameter (C-fiber) rat TG neurons (P2 old pup).
To verify, that the evoked response of our TRPV1-positive compounds is through the Vanilloid-binding site (VBS), we analyzed their activation profile on TRPV1(Y511 G) construct.
Next, the new scaffolds-evoked TRPV1 currents were analyzed using the voltage-clamp whole-cell configuration of the patch-clamp technique on HEK293T cells stably transfected with the rTRPV1 gene.

| calcium response of cells expressing mutant rTRPV1(Y511G) (rTRPV1(Y511G)) | Compound | depolarization and action potential firing [1] |
| --- | --- | --- |
| – | COc1cc(CNC(=O)CCCC/C=C/C(C)C)ccc1O [capsaicin, Capsaicin] | pronounced depolarization and burst of action potentials, followed by depolarization block; also recorded: robust depolarization with burst of action potentials followed by depolarization block |
| responded | NCCOB(c1ccccc1)c1ccccc1 [2-APB, 2-aminoethoxydiphenyl borate] | – |
